# US8173360B2, “Cell death inhibitor” (Takeda Pharmaceutical Company Limited, priority 2002, dated 2012)
# Legend:
# rat MIF = target: T1, rat MIF (Rattus norvegicus, UniProt P30904); assay: Binding to immobilized rat MIF by surface plasmon resonance (BIACORE 3000); conditions: 10 μM in PBS, rat MIF immobilized on sensor chip CM5
# T1 construct: the region encoding MIF was amplified from the complementary DNA (cDNA) library of rat and mouse brains; made in house; host or cells: Escherichia coli BL21 (DE3)
# Method: The binding of rat MIF obtained in REFERENCE EXAMPLE 6 to Compound 1 obtained in REFERENCE EXAMPLE 1 was analyzed using BIACORE 3000 (manufactured by Biacore).
# Rat MIF was immobilized on a sensor chip CM5 (manufactured by Biacore). Then, phosphate buffered saline (PBS) containing 10 μM of Compound 1 was flown over the sensor chip and changes in the surface plasmon resonance signal were monitored as the binding of the compound to rat MIF.
# Rat MIF obtained in REFERENCE EXAMPLE 6 was immobilized on a sensor chip CM5 (manufactured by Biacore Co., Ltd.). Thereafter, phosphate buffered saline (PBS) containing 10 μM of 3-[2-(4-oxo-4H-1,3-benzothiazin-2-yl)-4-pyridyl]propionic acid (the compound of EXAMPLE 308 described in WO 03/020719) was flown over the sensor chip and changes in surface plasmon resonance signal were monitored as the binding of the compound to rat MIF.
# [1] = tested on: primary cardiomyocytes derived from rat neonates; assay: Inhibition of serum depletion-induced myocardial cell death (WST-8 viable cell count); format: cell-based; conditions: serum depletion, 4 days, WST-8 viable cell count
# From the text: Neonates (within one day after birth) were obtained from pregnant Wistar rats purchased from Charles River Japan, Inc. and anesthetized with ether. After sterilization with 70% ethanol, the heart was removed with forceps. After washing with phosphate buffered saline (manufactured by Takara Co., Ltd., T900), the heart removed was minced with surgical scissors. The pieces of tissue were washed 4 or 5 times with phosphate buffered saline to remove most of non-cardiomyocytes derived from blood. To the pieces of tissue corresponding to 10 neonates, 5 ml of an enzyme solution [which is a solution of trypsin (1.25 mg) (manufactured by Difco) and collagenase (0.25 mg) (manufactured by Sigma) in phosphate buffer (1 ml)] was added. The mixture was stirred for 15 minutes with a stirrer while maintaining at 37° C. After 2.5 ml of the enzyme solution was replenished, the mixture was stirred for further 15 minutes, and this procedure was repeated twice. Subsequently, Medium 199 (manufactured by Gibco) containing 10% fetal cow serum (manufactured Biowicker, Inc.) was added to the mixture in a half volume of the enzyme solution to terminate the enzymatic reaction. After filtering through a cell strainer (manufactured by Falcon), the mixture was centrifuged at 400×g for 5 minutes to collect the cells.
# The cells were then recovered, filtered through a cell strainer and centrifuged at 400×g for 5 minutes to collect primary cardiomyocytes derived from rat neonates.
# Next, the primary cardiomyocytes derived from rat neonates (corresponding 10 neonates) were suspended in 2 ml of a hypotonic solution [solution obtained by dissolving NH4Cl (8.29 g), KHCO3 (1.0 g) and EDTA/2Na (ethylenediaminetetraacetic acid disodium; manufactured by Dojin Chemical Laboratory) (37 mg) in water (1 L)]. The suspension was allowed to stand for 3 minutes to disrupt erythrocytes. To the suspension 10 ml of Medium 199 containing 10% fetal cow serum was added, and the mixture was centrifuged at 400×g for 5 minutes to collect the primary cardiomyocytes derived from rat neonates. […] An aliquot of the cardiomyocytes suspension obtained was taken out and 0.3% trypan blue was added thereto. The mixture was gently stirred and the count of cardiomyocytes was counted with a hemocytometer.
# Incubation was continued for further 4 days to induce cell death. […]
# The mean value (±SD) in the minimum effective concentration of Compound 1 required for inhibiting the cell death was 0.015±0.011 μM. The concentration of Compound 1 required for increasing the mean cell count by 30% when compared to the cell count without the addition of Compound 1 was determined to be the minimum effective concentration. […]
# [2] = tested on: Human normal articular chondrocytes; assay: Inhibitory activity against cell death of human articular chondrocytes induced by NO (MTT); format: cell-based; conditions: 100 μM; 1.5 mM sodium nitroprusside 5 hours; mean ±SD
# Method: Human normal articular chondrocytes (Clonetics, Inc.) were proliferated in a growth medium for articular chondrocytes (CGM, Clonetics, Inc.) in monolayer culture. Then, the cells were suspended in 1.2% alginate-containing 155 mM NaCl solution in a density of 2.0×10^6 cells/ml, and beads having a 2 mm diameter were prepared using a syringe with a 22 gauge needle. The beads were incubated in a differentiation medium for articular chondrocytes (CDM, Clonetics, Inc.) charged in a 96-well round-bottomed plate (1 bead/well, manufactured by FALCON) for further 7 days. The medium was replaced by α-modified minimum essential medium containing Compound 1 (0.1 μM or 1 μM) and 10% fetal cow serum, followed by incubation for 48 hours and then for 5 hours in the co-presence of 1.5 mM sodium nitroprusside (NO generator, manufactured by Sigma). As control drugs, caspase 3 inhibitor (Z-DEVD-FMK (SEQ ID NO: 5), 100 μM, manufactured by R & D Systems, Inc.) and caspase 9 inhibitor (Z-LEHD-FMK (SEQ ID NO: 6), 100 μM, manufactured by R & D Systems, Inc.) were similarly monitored for their activities. After completion of the experiment, alginate was removed and the cell survival rate was determined by the MTT technique.
# In the table, the numerical values indicate mean values (±SD) of the cell death inhibition rates as converted from the measurement data by the MTT technique. The cell survival rate after the addition of 1.5 mM sodium nitroprusside (without addition of either Compound 1 or control drug) was 31.9%.
Compound,myocardial cell death inhibitory activity [1],Cell Death Inhibition Rate [2],also measured
"O=C(O)CCc1ccnc(-c2nc(=O)c3ccccc3s2)c1 [3-[2-(4-oxo-4H-1,3-benzothiazin-2-yl)-4-pyridyl]propionic acid]",,,binding of the compound to rat MIF (changes in surface plasmon resonance signal) (rat MIF): could be selected as the substance binding to MIF
hemin [reference compound],exhibit the activity of inhibiting myocardial cell death,,
"C=CC1=C(C)c2cc3[n-]c(cc4[n-]c(cc5nc(cc1n2)C(C)=C5C=C)c(C)c4CCC(=O)O)c(CCC(=O)O)c3C.O.[Fe+2] [hematin, reference compound]",exhibit the activity of inhibiting myocardial cell death,,
"Z-LEHD-FMK (Z N-cap, FMK C-terminus) [reference compound]",,62.7 ± 10.6,
Z-DEVD-FMK [reference compound],,49.7 ± 10.3,
